The text below walks through data of patent publication US12090147B2, “Combination therapy with 2-(4-chlorophenyl)-N-((2-(2,6-dioxopiperidin-3-yl)-1-oxoisoindolin-5-yl)methyl)-2,2-difluoroacetamide” (Celgene Corporation, priority 2019, dated 2024).

Assay [1] relates to MV4-11. As to the kind of experiment: Caspase 8/FLICE activity colorimetric assay. As to conditions: compounds at 1 μM, 24, 48 and 72 hours. The class given is cell-based, human. How it is done: (§1) Next, tests were performed to see if caspase 8 activation alone is sufficient to mediate IL-1β induction. […] To ensure caspase 8 activity was captured at an appropriate time frame, caspase 8 activation levels at 24, 48 and 72 hours were measured (FIGS. 3C and 3D) using a caspase 8/FLICE activity colorimetric assay.

Assay [2] has as its system ML-2. As to the kind of experiment: Caspase 8/FLICE activity colorimetric assay. The class given is cell-based, human. As to conditions: compounds at 1 μM, 24, 48 and 72 hours. How it is done:
as §1

Assay [3] relates to ML-2. Put plainly: Cytokine induction, electrochemiluminescence assay of culture supernatant. The assay is classed as cell-based, human. As to conditions: compounds at 1 μM, 72 hours.
In assay [4] the test system is MV4-11. The description is as above. The class given is cell-based, human. As to conditions: compounds at 1 μM, 72 hours.
For assay [5], the system named is acute myeloid leukemia (AML) at relapse. As to conditions: administered alone; cited from earlier work.

Turning to `COc1cccc2c1C(=O)c1c(O)c3c(c(O)c1C2=O)C[C@@](O)(C(C)=O)C[C@@H]3O[C@H]1C[C@H](N)[C@H](O)[C@H](C)O1` [daunorubicin, reference compound], the “Caspase 8 activation level” value in the assay on MV4-11 [1] and in the assay with ML-2 [2] was “higher extent of caspase 8 activation than Compound 1” in each case. In addition, the “Secreted IL-1β levels, panel of mechanistic compounds” value with ML-2 [3] and in the assay on MV4-11 [4] was “not able to induce secreted IL-1β as efficiently as Compound 1” each time.
Take “CT-011: anti-PD-1 antibody, a humanized antibody”: the “Response in treating AML at relapse” value in assay [5] is on record as “failed to show response”.
